Data taken from paper PMC9898749, “Cryo-EM structure of the plant nitrate transporter AtCLCa reveals characteristics of the anion-binding site and the ATP-binding pocket” (The Journal of Biological Chemistry, 2022).

T1: AtCLCa (Arabidopsis thaliana, UniProt P92941)
T1 construct: gene CLC-A; HEK293F (BacMam); purified in GDN; homodimer; modelled residues 53-626, 636-737, 744-766
T1 sequence (P92941 1-775): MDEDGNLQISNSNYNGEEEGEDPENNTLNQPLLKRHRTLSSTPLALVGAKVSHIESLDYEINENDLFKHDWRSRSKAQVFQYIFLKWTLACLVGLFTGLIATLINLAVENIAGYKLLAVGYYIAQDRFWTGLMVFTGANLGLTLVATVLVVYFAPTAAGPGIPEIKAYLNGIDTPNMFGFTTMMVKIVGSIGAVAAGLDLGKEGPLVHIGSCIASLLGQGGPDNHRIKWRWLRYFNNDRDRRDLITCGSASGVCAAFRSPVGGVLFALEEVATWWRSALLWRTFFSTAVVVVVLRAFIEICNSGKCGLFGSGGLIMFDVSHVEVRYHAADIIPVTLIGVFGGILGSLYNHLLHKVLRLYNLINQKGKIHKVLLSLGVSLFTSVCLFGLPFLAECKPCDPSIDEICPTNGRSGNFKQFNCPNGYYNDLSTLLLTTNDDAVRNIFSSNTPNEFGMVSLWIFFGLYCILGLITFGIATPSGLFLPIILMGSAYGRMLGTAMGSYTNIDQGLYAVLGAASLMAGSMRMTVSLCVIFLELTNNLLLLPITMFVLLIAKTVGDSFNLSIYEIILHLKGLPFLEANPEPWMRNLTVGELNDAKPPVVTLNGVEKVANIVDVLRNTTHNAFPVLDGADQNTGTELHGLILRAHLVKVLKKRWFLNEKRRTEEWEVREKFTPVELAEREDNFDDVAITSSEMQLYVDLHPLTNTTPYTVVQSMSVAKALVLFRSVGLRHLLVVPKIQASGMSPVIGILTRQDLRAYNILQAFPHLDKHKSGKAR


How the values were obtained:
AtCLCa = target: T1, AtCLCa; assay: cryo-EM structure, […] Å; type: binding; conditions: 150 mM NaNO3; GDN detergent; pH 7.5; three anion sites (external, central, internal) in transport pathway; identity assigned from buffer; nitrates placed by docking overlapping EM densities
[1] = target: the molecule itself; assay: cryo-EM structure; AtCLCa 4.2 mg/ml in 20 mM Hepes pH 7.5, 150 mM NaNO3, 0.06% GDN; endogenous Mg2+-ATP bound; C2 symmetry imposed; 2.8 Å

| Molecule | cryo-EM structure, 2.8 Å (AtCLCa) | stoichiometry N [1] |
| --- | --- | --- |
| O=[N+]([O-])O [nitrate] | The ions are most likely nitrate because we purified the protein in a buffer | – |
| Arabidopsis thaliana CLCa (natural protein, UniProt P92941 1-775, looked up, AtCLCa, Arabidopsis thaliana chloride channel protein CLC-a, nitrate/proton antiporter; NCBI NP_198905.1; full length (residues 1-775; modelled residues 53-626, 636-737, 744-766); A C-terminal 3C cleavage site stands between the protein and the strep tag; Copurified with endogenous Mg2+-ATP; purified in 150 mM sodium nitrate; also called AtCLCa; source: HEK293F cells, BacMam system, purified …) MDEDGNLQISNSNYNGEEEGEDPENNTLNQPLLKRHRTLSSTPLALVGAKVSHIESLDYEINENDLFKHDWRSRSKAQVFQYIFLKWTLACLVGLFTGLIATLINLAVENIAGYKLLAVGYYIAQDRFWTGLMVFTGANLGLTLVATVLVVYFAPTAAGPGIPEIKAYLNGIDTPNMFGFTTMMVKIVGSIGAVAAGLDLGKEGPLVHIGSCIASLLGQGGPDNHRIKWRWLRYFNNDRDRRDLITCGSASGVCAAFRSPVGGVLFALEEVATWWRSALLWRTFFSTAVVVVVLRAFIEICNSGKCGLFGSGGLIMFDVSHVEVRYHAADIIPVTLIGVFGGILGSLYNHLLHKVLRLYNLINQKGKIHKVLLSLGVSLFTSVCLFGLPFLAECKPCDPSIDEICPTNGRSGNFKQFNCPNGYYNDLSTLLLTTNDDAVRNIFSSNTPNEFGMVSLWIFFGLYCILGLITFGIATPSGLFLPIILMGSAYGRMLGTAMGSYTNIDQGLYAVLGAASLMAGSMRMTVSLCVIFLELTNNLLLLPITMFVLLIAKTVGDSFNLSIYEIILHLKGLPFLEANPEPWMRNLTVGELNDAKPPVVTLNGVEKVANIVDVLRNTTHNAFPVLDGADQNTGTELHGLILRAHLVKVLKKRWFLNEKRRTEEWEVREKFTPVELAEREDNFDDVAITSSEMQLYVDLHPLTNTTPYTVVQSMSVAKALVLFRSVGLRHLLVVPKIQASGMSPVIGILTRQDLRAYNILQAFPHLDKHKSGKAR | – | 2 |
